From ChEMBL document CHEMBL6109108, “A comprehensive review of fused imidazonaphthyridine derivatives: Synthetic approaches and biological applications” (Bioorg Med Chem, 2025)
Values after ≈ are worked out from the molar mass of the structure shown.

Assays:
Rattus norvegicus = assay: Anti-inflammatory activity against carrageenan-induced paw edema in rat assessed as inhibition of paw edema at 50 mg/kg, po relative to control; format: functional; set-up: scale not given: the % may be the effect or the level left
[1] = Antiproliferative activity against mouse BaF3/TRP-Met cells
Chikungunya virus = assay: Antiviral activity against Chikungunya virus infected in Vero E6 cells assessed as inhibition of virus-induced cytopathic effect incubated for 72 hrs by CellTiter Glo luminescence assay; format: functional, organism-based; details: Vero C1008, 72 h
Bacillus subtilis [2] = assay: Antibacterial activity against Bacillus subtilis assessed as zone of inhibition at 200 ug/ml by agar disc diffusion method; format: functional; details: read-out: IZ
Bacillus subtilis [3] = assay: Antibacterial activity against Bacillus subtilis assessed as zone of inhibition at 150 ug/ml by agar disc diffusion method; format: functional; details: read-out: IZ
Pseudomonas aeruginosa [4] = assay: Antibacterial activity against Pseudomonas aeruginosa assessed as zone of inhibition at 250 ug/ml by agar disc diffusion method; format: functional; details: read-out: IZ
Staphylococcus aureus [5] = assay: Antibacterial activity against Staphylococcus aureus assessed as zone of inhibition at 150 ug/ml by agar disc diffusion method; format: functional; details: read-out: IZ
Escherichia coli [6] = assay: Antibacterial activity against Escherichia coli assessed as zone of inhibition at 150 ug/ml by agar disc diffusion method; format: functional; details: read-out: IZ
Escherichia coli [7] = assay: Antibacterial activity against Escherichia coli assessed as zone of inhibition at 200 ug/ml by agar disc diffusion method; format: functional; details: read-out: IZ
Pseudomonas aeruginosa [8] = assay: Antibacterial activity against Pseudomonas aeruginosa assessed as zone of inhibition at 200 ug/ml by agar disc diffusion method; format: functional; details: read-out: IZ
Escherichia coli [9] = assay: Antibacterial activity against Escherichia coli assessed as zone of inhibition at 250 ug/ml by agar disc diffusion method; format: functional; details: read-out: IZ
Pseudomonas aeruginosa [10] = assay: Antibacterial activity against Pseudomonas aeruginosa assessed as zone of inhibition at 150 ug/ml by agar disc diffusion method; format: functional; details: read-out: IZ
Staphylococcus aureus [11] = assay: Antibacterial activity against Staphylococcus aureus assessed as zone of inhibition at 250 ug/ml by agar disc diffusion method; format: functional; details: read-out: IZ
Staphylococcus aureus [12] = assay: Antibacterial activity against Staphylococcus aureus assessed as zone of inhibition at 200 ug/ml by agar disc diffusion method; format: functional; details: read-out: IZ
Bacillus subtilis [13] = assay: Antibacterial activity against Bacillus subtilis assessed as zone of inhibition at 250 ug/ml by agar disc diffusion method; format: functional; details: read-out: IZ
hERG (KCNH2) = hERG (KCNH2) (Homo sapiens, UniProt Q12809); assay: Inhibition of hERG potassium […] at 6.25 uM relative to control; format: toxicity
Escherichia coli [14] = assay: Antibacterial activity against Escherichia coli assessed as zone of inhibition at 25 ug/ml by agar well diffusion method; format: functional; details: read-out: IZ
Staphylococcus aureus [15] = assay: Antibacterial activity against Staphylococcus aureus assessed as zone of inhibition at 25 ug/ml by agar well diffusion method; format: functional; details: read-out: IZ
Staphylococcus aureus [16] = assay: Antibacterial activity against Staphylococcus aureus assessed as zone of inhibition at 35 ug/ml by agar well diffusion method; format: functional; details: read-out: IZ
Escherichia coli [17] = assay: Antibacterial activity against Escherichia coli assessed as zone of inhibition at 35 ug/ml by agar well diffusion method; format: functional; details: read-out: IZ
Staphylococcus aureus [18] = assay: Antibacterial activity against Staphylococcus aureus assessed as zone of inhibition at 10 ug/ml by agar well diffusion method; format: functional; details: read-out: IZ
Escherichia coli [19] = assay: Antibacterial activity against Escherichia coli assessed as zone of inhibition at 10 ug/ml by agar well diffusion method; format: functional; details: read-out: IZ
Pseudomonas aeruginosa [20] = assay: Antibacterial activity against Pseudomonas aeruginosa assessed as reduction in bacterial growth by CLSI protocol based agar dilution method; format: functional
Staphylococcus aureus [21] = assay: Antibacterial activity against Staphylococcus aureus assessed as reduction in bacterial growth by CLSI protocol based agar dilution method; format: functional
Escherichia coli [22] = assay: Antibacterial activity against Escherichia coli 209p assessed as reduction in bacterial growth by CLSI protocol based agar dilution method; format: functional
Shigella flexneri = assay: Antibacterial activity against Shigella flexneri NIHJ assessed as reduction in bacterial growth by CLSI protocol based agar dilution method; format: functional
[23] = molecular target: Voltage-gated inwardly rectifying potassium channel KCNH2 (Homo sapiens, UniProt Q12809); assay: Inhibition of hERG; format: toxicity
Hepatitis C virus = assay: Antiviral activity against Hepatitis C virus genotype 2a infected in human Huh-7 cells assessed as reduction in viral infection; format: functional, organism-based, Hepacivirus hominis

Voltage-gated inwardly rectifying potassium channel KCNH2, sequence (Q12809 whole entry): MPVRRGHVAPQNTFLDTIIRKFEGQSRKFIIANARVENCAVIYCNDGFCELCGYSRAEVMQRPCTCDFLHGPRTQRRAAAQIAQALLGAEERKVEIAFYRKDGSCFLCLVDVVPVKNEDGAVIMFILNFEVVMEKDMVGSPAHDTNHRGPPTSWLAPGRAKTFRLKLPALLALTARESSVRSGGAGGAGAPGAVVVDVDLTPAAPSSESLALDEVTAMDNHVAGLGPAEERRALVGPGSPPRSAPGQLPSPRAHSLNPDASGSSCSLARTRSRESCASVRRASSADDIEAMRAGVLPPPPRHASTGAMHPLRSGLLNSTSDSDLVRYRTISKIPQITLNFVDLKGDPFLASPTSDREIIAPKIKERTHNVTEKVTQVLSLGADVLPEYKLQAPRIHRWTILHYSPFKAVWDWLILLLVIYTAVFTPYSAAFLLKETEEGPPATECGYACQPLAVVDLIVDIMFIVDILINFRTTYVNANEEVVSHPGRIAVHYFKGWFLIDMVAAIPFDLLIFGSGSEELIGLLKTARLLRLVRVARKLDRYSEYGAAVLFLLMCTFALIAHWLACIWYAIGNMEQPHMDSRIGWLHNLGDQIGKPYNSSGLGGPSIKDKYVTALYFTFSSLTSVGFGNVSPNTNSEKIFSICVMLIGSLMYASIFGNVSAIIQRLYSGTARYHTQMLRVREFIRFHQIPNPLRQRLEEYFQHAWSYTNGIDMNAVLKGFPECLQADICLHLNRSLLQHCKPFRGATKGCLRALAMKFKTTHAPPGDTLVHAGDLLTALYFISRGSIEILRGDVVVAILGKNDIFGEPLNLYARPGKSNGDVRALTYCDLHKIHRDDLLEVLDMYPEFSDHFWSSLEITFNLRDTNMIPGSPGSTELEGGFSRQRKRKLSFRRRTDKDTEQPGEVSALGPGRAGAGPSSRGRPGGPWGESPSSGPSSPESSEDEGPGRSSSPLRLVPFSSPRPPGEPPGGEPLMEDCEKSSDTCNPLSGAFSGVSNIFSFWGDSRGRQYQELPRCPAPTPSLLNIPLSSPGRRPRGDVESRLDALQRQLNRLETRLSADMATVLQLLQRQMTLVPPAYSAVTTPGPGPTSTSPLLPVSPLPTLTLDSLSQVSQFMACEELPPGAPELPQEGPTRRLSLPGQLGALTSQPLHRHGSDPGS
hERG (KCNH2), sequence (Q12809 whole entry, the tested form may be a part): as the sequence (Q12809 whole entry) above

CCn1cnc2c3cccnc3n(-c3ccccc3)c(=O)c21
Activity (Rattus norvegicus): 58.2%

Cn1cnc2c3cccnc3n(-c3ccccc3)c(=O)c21
Activity (Rattus norvegicus): 40%

N[C@H]1CC[C@H](n2c(=O)n(Cc3ccc(Cl)c(Cl)c3)c3nc(Oc4ccc(C(=O)N5CCCCC5)cc4)c4cccnc4c32)CC1
IC50 [1]: < 1000 nM

FC(F)(F)c1cc(C(F)(F)F)c2ccc3nc(-c4nnco4)cn3c2n1
EC50 (Chikungunya virus): 203 nM

O=[N+]([O-])c1cccc(-c2cc3cccnc3n3c2nc2ccc(O)cc23)c1
zone of inhibition at 200 µg/mL (Bacillus subtilis [2]): 19 mm
zone of inhibition at 150 µg/mL (Bacillus subtilis [3]): 16 mm
zone of inhibition at 250 µg/mL (Pseudomonas aeruginosa [4]): 22 mm
zone of inhibition at 150 µg/mL (Staphylococcus aureus [5]): 18 mm
zone of inhibition at 150 µg/mL (Escherichia coli [6]): 17 mm
zone of inhibition at 200 µg/mL (Escherichia coli [7]): 22 mm
zone of inhibition at 200 µg/mL (Pseudomonas aeruginosa [8]): 20 mm
zone of inhibition at 250 µg/mL (Escherichia coli [9]): 22 mm
zone of inhibition at 150 µg/mL (Pseudomonas aeruginosa [10]): 17 mm
zone of inhibition at 250 µg/mL (Staphylococcus aureus [11]): 22 mm
zone of inhibition at 200 µg/mL (Staphylococcus aureus [12]): 20 mm
zone of inhibition at 250 µg/mL (Bacillus subtilis [13]): 23 mm

Cc1cc(C)c2ccc3nc(-c4ccc(F)cc4)c(CN4CCCCC4)n3c2n1
inhibition at 6.25 µM (hERG (KCNH2)): 11%

O=[N+]([O-])c1cccc(-c2cnc3c(-c4ccc(F)cc4Cl)cc4cccnc4n23)c1
zone of inhibition at 25 µg/mL (Escherichia coli [14]): 16 mm
zone of inhibition at 25 µg/mL (Staphylococcus aureus [15]): 16 mm
zone of inhibition at 35 µg/mL (Staphylococcus aureus [16]): 24 mm
zone of inhibition at 35 µg/mL (Escherichia coli [17]): 25 mm
zone of inhibition at 10 µg/mL (Staphylococcus aureus [18]): 6 mm
zone of inhibition at 10 µg/mL (Escherichia coli [19]): 6 mm

CCn1cnc2cc3c(=O)c(C(=O)O)cn(CC)c3nc21
MIC (Pseudomonas aeruginosa [20]): > 100 µg/mL
MIC (Staphylococcus aureus [21]): 25 µg/mL (≈ 87.3 µM)
MIC (Escherichia coli [22]): 3.13 µg/mL (≈ 10.9 µM)
MIC (Shigella flexneri): 3.13 µg/mL (≈ 10.9 µM)

COc1ccc(-c2nc3ccc4c(C)cc(C)nc4n3c2CN2CCC(C)CC2)cc1
IC50 [23]: 1120 nM

Cc1cccc(-c2cnc3ccc4c(C(F)(F)F)cc(C(F)(F)F)nc4n23)c1
EC50 (Hepatitis C virus): 2600 nM

Cc1ccccc1-c1cnc2ccc3c(C(F)(F)F)cc(C(F)(F)F)nc3n12
EC50 (Hepatitis C virus): 2800 nM

FC(F)(F)c1cc(C(F)(F)F)c2ccc3ncc(-c4cncnc4)n3c2n1
EC50 (Hepatitis C virus): > 20000 nM

Fc1ccc(-c2cc3cccnc3n3c(-c4ccc(Cl)cc4)cnc23)c(Cl)c1
zone of inhibition at 25 µg/mL (Escherichia coli [14]): 16 mm
zone of inhibition at 25 µg/mL (Staphylococcus aureus [15]): 16 mm
zone of inhibition at 35 µg/mL (Staphylococcus aureus [16]): 24 mm
zone of inhibition at 35 µg/mL (Escherichia coli [17]): 25 mm
zone of inhibition at 10 µg/mL (Staphylococcus aureus [18]): 6 mm
zone of inhibition at 10 µg/mL (Escherichia coli [19]): 6 mm
